{"source": "paper PMC11077991", "about": "“The small molecule CBR-5884 inhibits the Candida albicans phosphatidylserine synthase” (mBio, 2024)", "key": {"cho1ΔΔ strain": {"test_system": "cho1ΔΔ strain", "experiment": "growth of cho1ΔΔ strain in rich YPD media", "format": "cell-based, Candida albicans"}, "purified hexameric Cho1": {"target": "purified hexameric Cho1 (Candida albicans, UniProt A0A1D8PF32)", "sequence (A0A1D8PF32 entry or part of it)": "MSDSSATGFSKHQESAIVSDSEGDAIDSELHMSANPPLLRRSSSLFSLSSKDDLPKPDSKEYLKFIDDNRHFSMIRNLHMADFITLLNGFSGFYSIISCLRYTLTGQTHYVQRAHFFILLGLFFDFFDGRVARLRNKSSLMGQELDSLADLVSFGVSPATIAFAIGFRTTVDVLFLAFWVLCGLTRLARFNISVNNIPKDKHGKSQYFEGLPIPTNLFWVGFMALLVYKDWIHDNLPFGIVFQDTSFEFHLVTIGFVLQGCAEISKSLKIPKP", "experiment": "kinetic curves of purified hexameric Cho1 (radioactive PS synthase assay)", "format": "biochemical", "protocol": "For the kinetic curves, the specific activity was measured in the reaction containing 50 mM Tris-HCl (pH 8.0), 1 mM MnCl2, 0.025%–0.3% Triton X-100 and 0.033%–0.07% digitonin with 0.75–1.5 µg purified Cho1 protein. The concentrations of 18:1 CDP-DAG (Avanti, cat# 870520) and serine are indicated in the graphs, and the mol % of CDP-DAG was kept between 4.2% and 5.0% for the curve where CDP-DAG was varied (Fig. 6C and D) and at 4.8% (200 μM) for the curve where serine was varied (Fig. 6B). The concentrations of CBR-5884 used in each reaction are indicated in the graph, and CBR-5884 was incubated with purified Cho1 protein in the presence of CDP-DAG on ice for at least 2 h before the addition of L-[^3H]-serine. The reaction was stopped at 20, 40, and 60 min, and specific activity was calculated based on the slope of linear PS production, representing the initial velocity."}}, "data": [{"compound": "CCOC(=O)c1sc(NC(=O)c2ccco2)c(SC#N)c1C", "note": "[CBR-5884]", "values": [{"measurement": "growth of the cho1ΔΔ strain", "setting": "cho1ΔΔ strain", "value": "decreases growth"}, {"measurement": "Ki", "setting": "purified hexameric Cho1", "value": 1.55, "unit": "µM"}, {"measurement": "inhibition of Cho1 activity at sub-saturating serine", "setting": "purified hexameric Cho1; serine 20 mM, CDP-DAG 25-300 µM", "value": "observed"}, {"measurement": "inhibition of Cho1 activity at saturating serine", "setting": "purified hexameric Cho1; serine 32 mM, CDP-DAG varied", "value": "inhibition was overcome"}, {"measurement": "pattern of inhibition", "setting": "purified hexameric Cho1; serine varied, CDP-DAG 200 µM", "value": "competitive inhibition"}]}]}
